Test results published in patent US20130296311A1, “INHIBITORS OF HCV NS5A” (PRESIDIO PHARMACEUTICALS, INC., priority 2010, published 2013).
Read-outs that look alike come from different tables or passages of the source.

Tested on: HCV 1b_Huh-Luc/Neo-ET cell line persistently expressing a bicistronic genotype 1b replicon in Huh 7 cells
Assay: HCV replicon assay (luciferase readout, 72 h)
Format: cell-based, HCV genotype 1b
Conditions: Hepatitis C virus
Procedure, shortened: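 Huh 7 cells carrying a bicistronic genotype 1b luciferase/neo replicon received compound in triplicate the day after plating. After 72 h, replicon levels were read as Bright-Glo luciferase activity, expressed as % of control; EC50 was fitted with a four-parameter logistic and determined several times.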

[1] = Huh-7, 72 h, read-out: Inhibition of HCV genotype 1b
[2] = Huh-7, read-out: Inhibition of HCV genotype 1b

Structure (SMILES)	EC50 [1] [nM]	EC50 [2] [nM]
COC(=O)N[C@H](C(=O)N[C@@H](C)c1ncc(-c2ccc(C#Cc3ccc(-c4cnc([C@H](C)NC(=O)[C@@H](NC(=O)OC)[C@@H](C)OC)[nH]4)cc3)cc2)[nH]1)[C@@H](C)OC [Compound 952]	1 to 9.9	
COC(=O)N[C@H](C(=O)N1CCC[C@H]1CNC(=O)c1ccc(C#Cc2ccc3nc([C@@H]4CCCN4C(=O)[C@@H](NC(=O)OC)C(C)C)[nH]c3c2)cc1)C(C)C [Compound 1238]		< 1
CN1CCN(C(=O)N[C@@H](C(=O)N2CCC[C@H]2c2ncc(C#Cc3ccc(-c4cnc([C@@H]5CCCN5C(=O)[C@H](NC(=O)N5CCN(C)CC5)c5ccccc5)[nH]4)cc3)[nH]2)c2ccccc2)CC1 [Compound 118]	10 to 999	
CC(C)[C@@H](NC(=O)C1CC1)C(=O)N1CCC[C@H]1c1ncc(C#Cc2ccc(C#Cc3cnc([C@@H]4CCCN4C(=O)[C@H](NC(=O)C4CC4)C(C)C)[nH]3)cc2)[nH]1 [Compound 302]	> 1000	
COC(=O)N[C@H](C(=O)N1CCC[C@H]1c1nc2ccc3cc(C#Cc4ccc(-c5cnc([C@@H]6CCCN6C(=O)[C@@H](NC(=O)OC)C6CCOCC6)[nH]5)cc4)ccc3c2[nH]1)C(C)C [Compound 1092]	< 1	
CN1CCN(C(=O)N[C@@H](C(=O)N2CCC[C@H]2c2ncc(-c3ccc(C#Cc4ccc(-c5cnc([C@@H]6CCCN6C(=O)[C@H](NC(=O)N6CCN(C)CC6)c6ccccc6)[nH]5)cc4)cc3)[nH]2)c2ccccc2)CC1 [Compound 159]	< 1	
COC(=O)N[C@H](C(=O)N[C@@H](C)c1ncc(-c2ccc(C#Cc3ccc4nc([C@H](C)NC(=O)[C@@H](NC(=O)OC)C(C)C)[nH]c4c3)cc2)[nH]1)C(C)C [Compound 868]	< 1	
COC(=O)N[C@H](C(=O)N1CCC[C@H]1c1nc2c([nH]1)-c1ccc(C#Cc3ccc4nc([C@@H]5CCCN5C(=O)[C@@H](NC(=O)OC)C(C)C)[nH]c4c3)cc1CCC2)C(C)C [Compound 1279]		< 1
COC(=O)N[C@H](C(=O)N[C@@H](C)c1ncc(-c2ccc(C#Cc3ccc(-c4cnc([C@@H]5CCCN5C(=O)[C@@H](C(C)C)N(C)C)[nH]4)cc3)cc2)[nH]1)C(C)C [Compound 964]	1 to 9.9	
CCN(CC)[C@@H](C(=O)N1CCC[C@H]1c1ncc(-c2ccc(C#Cc3ccc(-c4cnc([C@@H]5CCCN5C(=O)[C@@H](NC(=O)OC)C(C)C)[nH]4)cc3)cc2)[nH]1)c1ccccc1 [Compound 985]	< 1	
COC(=O)N[C@H](C(=O)N1CCC[C@H]1c1ncc(-c2ccc(C#Cc3ccc(-c4cnc([C@@H]5CCCN5C(=O)[C@@H](c5ccccc5)N5CCN(C)CC5)[nH]4)cc3)cc2)[nH]1)C(C)C [Compound 957]	< 1	
C[C@H](NC(=O)[C@@H]1CCCN1C(=O)[C@H](NC(=O)C1CC1)c1ccccc1)c1ccc(C#Cc2ccc(-c3cnc([C@@H]4CCCN4C(=O)[C@H](NC(=O)C4CC4)c4ccccc4)[nH]3)cc2)cc1 [Compound 191]	< 1	
COC(=O)N[C@H](C(=O)N1CCC[C@H]1c1nc2c([nH]1)-c1ccc(C#Cc3ccc4nc([C@@H]5CCCN5C(=O)[C@@H](NC(=O)OC)C5CCOCC5)[nH]c4c3)cc1CC2)C(C)C [Compound 1102]	< 1	
COC(=O)N[C@H](C(=O)N1CCC[C@H]1c1ncc(C#Cc2ccc(-c3cnc([C@@H]4CCCN4C(=O)[C@@H](NC(=O)OC)C(C)C)[nH]3)cc2)[nH]1)C(C)C [Compound 134]	< 1	
C(#Cc1ccc2nc([C@@H]3CCCN3)[nH]c2c1)c1ccc(-c2cnc([C@@H]3CCCN3)[nH]2)cc1 [Compound 1035]	10 to 999	
O=C(N[C@@H](C(=O)N1CCC[C@H]1C(=O)Nc1ccc(C#Cc2cnc([C@@H]3CCCN3C(=O)[C@H](NC(=O)C3CC3)c3ccccc3)[nH]2)cc1)c1ccccc1)C1CC1 [Compound 117]	< 1	
COC(=O)N[C@H](C(=O)N1CCC[C@H]1c1nc(C#N)c(C#Cc2ccc3cc(-c4cnc([C@@H]5CCCN5C(=O)[C@@H](NC(=O)OC)[C@@H](C)OC)[nH]4)ccc3c2)[nH]1)C(C)C [Compound 1268]		< 1
COC(=O)N[C@H](C(=O)N1CCC[C@H]1c1ncc(-c2ccc(C#Cc3ccc(-c4cnc([C@@H]5CCCN5C(=O)[C@@H](NC(=O)OC)[C@@H](C)OC)[nH]4)cc3)cc2)[nH]1)C(C)C [Compound 972]	< 1	
COC(=O)N[C@H](C(=O)N1CSC[C@H]1c1ncc(-c2ccc(C#Cc3ccc4nc([C@@H]5CCCN5C(=O)[C@@H](NC(=O)OC)C(C)C)[nH]c4c3)cc2)[nH]1)C(C)C [Compound 1026]	< 1	
COC(=O)N[C@H](C(=O)N1CCC[C@H]1c1nc2c([nH]1)-c1ccc(C#Cc3ccc4nc([C@@H]5CCCN5C(=O)[C@H](NC(=O)OC)c5ccccc5)[nH]c4c3)cc1CCC2)C(C)C [Compound 1281]		< 1
C[C@@H](NC(=O)[C@@H]1CCCN1C(=O)[C@H](NC(=O)C1CC1)c1ccccc1)c1ccc(C#Cc2cnc([C@@H]3CCCN3C(=O)[C@H](NC(=O)C3CC3)c3ccccc3)[nH]2)cc1 [Compound 135]	> 1000	

Structure (SMILES)	EC50 [1] [nM]	EC50 [2] [nM]
COC(=O)N[C@@H](C(=O)N1CCC[C@H]1c1ncc(-c2ccc(C#Cc3ccc(-c4cnc([C@@H]5CCCN5C(=O)[C@H](NC(=O)N5CC[C@H](O)C5)c5ccccc5)[nH]4)cc3)cc2)[nH]1)c1ccccc1 [Compound 269]	< 1	
COC(=O)N[C@H](C(=O)N1CCN(C(=O)OC)C[C@H]1c1ncc(-c2ccc(C#Cc3ccc(-c4cnc([C@@H]5CCCN5C(=O)[C@@H](NC(=O)OC)C5CCOCC5)[nH]4)cc3)cc2)[nH]1)C(C)C [Compound 1205]		< 1
COC(=O)N[C@H](C(=O)N1CCC[C@H]1CNC(=O)c1ccc(C#Cc2ccc3nc([C@@H]4CCCN4C(=O)[C@@H](NC(=O)OC)C(C)C)[nH]c3c2)cn1)C(C)C [Compound 1240]		10 to 999
O=C([C@H](O)c1ccccc1)N1CCC[C@H]1c1ncc(-c2ccc(C#Cc3ccc(-c4cnc([C@@H]5CCCN5C(=O)[C@H](O)c5ccccc5)[nH]4)cc3)cc2)[nH]1 [Compound 157]	< 1	
COC(=O)N[C@H](C(=O)N1CCC[C@H]1c1nc2c([nH]1)-c1ccc(C#Cc3ccc4nc([C@@H]5CCCN5C(=O)[C@H](NC(=O)OC5CCOCC5)c5ccccc5)[nH]c4c3)cc1CCC2)C(C)C [Compound 1282]		< 1
COC(=O)NCC(=O)N1CCC[C@H]1c1ncc(-c2ccc(C#Cc3ccc4nc([C@@H]5CCCN5C(=O)CNC(=O)OC)[nH]c4c3)cc2)[nH]1 [Compound 1049]	10 to 999	
COC(=O)N[C@H](C(=O)N1CCC[C@H]1c1ncc(-c2ccc(C#Cc3ccc(-c4cnc([C@@H]5CCCN5C(=O)[C@H](C(C)C)N(C)C)[nH]4)cc3)cc2)[nH]1)C(C)C [Compound 953]	1 to 9.9	
CCN(CC)[C@@H](C(=O)N1CCC[C@H]1c1ncc(-c2ccc(-c3ccc(C#Cc4cnc([C@@H]5CCCN5C(=O)[C@H](NC(=O)OC)c5ccccc5)[nH]4)cc3)cc2)[nH]1)c1ccccc1 [Compound 751]	< 1	
O=C([C@@H](c1ccccc1)N1CCCCC1)N1CCC[C@H]1c1ncc(-c2ccc(C#Cc3ccc(-c4cnc([C@@H]5CCCN5C(=O)[C@@H](c5ccccc5)N5CCCCC5)[nH]4)cc3)cc2)[nH]1 [Compound 205]	< 1	
COC(=O)N[C@@H](CC(=O)O)C(=O)N1CCC[C@H]1c1ncc(-c2ccc(C#Cc3ccc4nc([C@@H]5CCCN5C(=O)[C@H](CC(=O)O)NC(=O)OC)[nH]c4c3)cc2)[nH]1 [Compound 1061]	10 to 999	
CC(C)(C)OC(=O)N[C@@H](C(=O)N1CCC[C@H]1CNC(=O)c1ccc(C#Cc2ccc(-c3cnc([C@@H]4CCCN4C(=O)[C@H](NC(=O)OC(C)(C)C)c4ccccc4)[nH]3)cc2)cc1)c1ccccc1 [Compound 192]	1 to 9.9	
COC(=O)N[C@H](C(=O)N1CCC[C@H]1c1nc(-c2cnc3cc(C#Cc4ccc(-c5cnc([C@@H]6CCCN6C(=O)[C@@H](NC(=O)OC)c6ccccc6)[nH]5)cc4)ccc3c2)c[nH]1)c1ccccc1 [Compound 1089]	10 to 999	
O=C(N[C@@H](C(=O)N1CCC[C@H]1c1ncc(C#Cc2ccc(-c3ccc(-c4cnc([C@@H]5CCCN5C(=O)[C@H](NC(=O)N5CCOCC5)c5ccccc5)[nH]4)cc3)cc2)[nH]1)c1ccccc1)N1CCOCC1 [Compound 761]	< 1	
COC(=O)N[C@H](C(=O)N1CCC[C@H]1c1ncc(-c2ccc(C#Cc3ccc(-c4cnc([C@@H]5CCCN5C(=O)[C@@H](NC(=O)OC)C(C)C)[nH]4)cc3C#N)cc2)[nH]1)C(C)C [Compound 1202]		< 1
COC(=O)N[C@@H](C(=O)N1CCC[C@H]1c1ncc(C#Cc2ccc(-c3ccc(-c4cnc([C@@H]5CCCN5C(=O)[C@@H](c5ccccc5)N5CCOCC5)[nH]4)cc3)cc2)[nH]1)c1ccccc1 [Compound 758]	< 1	
COC(=O)N[C@H](C(=O)N[C@@H](C)c1ncc(-c2ccc(C#Cc3ccc(-c4cnc([C@@H]5CCCN5C(=O)[C@@H](c5ccccc5)N(C)C)[nH]4)cc3)cc2)[nH]1)C(C)C [Compound 965]	< 1	
CN(C)[C@@H](C(=O)N1CCC[C@H]1c1ncc(-c2ccc(C#Cc3ccc(-c4cnc([C@@H]5CCCN5C(=O)[C@@H](c5ccccc5)N(C)C)[nH]4)cc3)cc2)[nH]1)c1ccccc1 [Compound 160]	< 1	
COC(=O)N[C@@H](C(=O)N1CCC[C@H]1c1ncc(C#Cc2ccc(-c3ccc(-c4cnc([C@@H]5CCCN5C(=O)[C@H](NC(=O)OC)c5ccccc5)[nH]4)cc3)cc2)[nH]1)c1ccccc1 [Compound 750]	< 1	
COC(=O)N[C@@H](C(=O)N1CCC[C@H]1c1ncc(-c2ccc(C#Cc3cnc([C@@H]4CCCN4C(=O)[C@@H](c4ccccc4)N(C)C)[nH]3)cc2)[nH]1)c1ccccc1 [Compound 128]	< 1	
CO[C@@H](C(=O)N1CCC[C@H]1c1ncc(-c2ccc(C#Cc3ccc(-c4cnc([C@@H]5CCCN5C(=O)[C@H](OC)c5ccccc5)[nH]4)cc3)cc2)[nH]1)c1ccccc1 [Compound 172]	< 1	
COC(=O)N[C@H](C(=O)N1CCC[C@H]1c1ncc(-c2cccc3c(C#Cc4ccc5nc([C@@H]6CCCN6C(=O)[C@@H](NC(=O)OC)C(C)C)[nH]c5c4)cccc23)[nH]1)C(C)C [Compound 1112]	< 1	
